From publication PMC5108564, “Use of ferrous iron by metallo-β-lactamases” (Journal of Inorganic Biochemistry, 2016)
Several values for one entry are separate records, joined by “and”; a condition that tells them apart may be missing. Identical values can stand only once.

What was measured:
[1] = molecular target: T1, di-Fe(II) BcII (Bacillus cereus, UniProt P04190); assay: Inhibition assay with nitrocefin as reporter substrate; type: biochemical
T1 construct: made in house; host or cells: E. coli BL21(DE3)pLysS
Procedure: (§1) Enzyme concentrations were the same as those employed in equilibrium kinetic studies. […] Residual enzyme activity was determined for a range of inhibitor concentrations. Non-linear regression fitting of IC50 curves was carried out using a three-parameter dose-response curve in GraphPad Prism. Errors are expressed as: σlogIC50/logIC50×IC50 .
(§2) MBL inhibition is a current target for medicinal chemistry, [63]. Given the observed differences in metal binding geometries between the di-Fe(II) and di-Zn(II) form of BcII and in the kinetic properties of di-Fe(II) BcII and VIM-2 compared to their di-Zn(II) enzymes, we then investigated whether the two metal-substituted BcII enzymes might respond differently to known MBL inhibitors (Table 3 and Fig. S12). We were particularly interested to see if the two enzyme forms responded differently to thiol-based MBL inhibitors, since the sulfur often bridges the two metal centres as an analogue of the bridging water during inhibition, [64].

[2] = molecular target: T2, di-Zn(II) BcII (Bacillus cereus, UniProt P04190); assay: as above; type: biochemical
T2 construct: made in house; host or cells: E. coli BL21(DE3)pLysS
Procedure: as §1, §2

[3] = molecular target: T3, di-Zn(II) VIM-2 (Pseudomonas aeruginosa, UniProt Q9K2N0); settings: meropenem as substrate, VIM-2 Zn(II), [E] 5 nM
Procedure: (§5) Steady-state kinetic studies were carried out using a Pherastar FS microplate reader and UV-Star 96 well clear microplates (Greiner Bio-One). Samples of 1 mM apo-enzyme were pre-incubated with two equivalents of TCEP·HCl for 5 min prior to addition of 3.5 equivalents of the desired metal before dilution to concentrations required for kinetic assays. For Fe(II)-substituted enzymes, plates were prepared at ≤ 2 ppm O2 using deoxygenated buffer and sealed prior to absorbance readings. […] Substrate concentrations ranged between 400 μM and 0.4 μM. The Michaelis-Menten equation was fitted to data by non-linear regression using GraphPad Prism software to calculate the Michaelis-Menten constant and the limiting rate [43].

[4] = molecular target: T4, di-Fe(II) VIM-2 (Pseudomonas aeruginosa, UniProt Q9K2N0); settings: meropenem as substrate, VIM-2 Fe(II), [E] 30 nM, low O2
Procedure: as §5

[5] = molecular target: T1, di-Fe(II) BcII; assay: Stopped-flow UV/Vis absorption kinetics of nitrocefin hydrolysis; type: biochemical; set-up: k1 / k-1 / k2 / k3 / k4 / k5: unit not given here; settings: for Substrate Decay / Product accumulation / Intermediate Decay / Intermediate accumulation: Fe(II), 1:1, 5 °C; for k1: 50 µM enzyme, 50 µM nitrocefin
Procedure: (§3) All metal solutions and metal-substituted enzymes for stopped-flow kinetics were prepared at ≤ 40 ppm O2 using deoxygenated buffers. Buffers used were: 50 mM HEPES pH 7.5, 200 mM NaCl; 50 mM MES pH 6.5, 200 mM NaCl; 50 mM MES pH 5.5, 200 mM NaCl. All buffers were treated with Chelex 100 to remove residual metal ions. Aliquots of apo-enzyme were diluted to 100 μM by addition of reaction buffer (1 mL final volume). The enzyme was incubated with two equivalents of tris(2-carboxyethyl)phosphine hydrochloride salt (TCEP·HCl), by addition of 2 μL of a 100 mM stock, for 5 min. Metal-substituted enzymes were then produced by the addition of 3.5 equivalents of metal salt to the apo-enzyme (3.5 μL of a 100 mM stock in buffer). […] Spectra were recorded over 100 s using a photodiode-array detector. Subsequent analysis of kinetic traces was carried out using Origin 8.5 [41]. Curves corresponding to substrate depletion (390 nm) and product accumulation (485 nm) were fitted by a single exponential function, whilst 665 nm features were fitted by a double exponential function.
(§4) Note that difference spectra were employed to identify the λmax of the feature and indicate that the feature corresponds to an independent species. […] Thus the observation of a visible reaction intermediate absorbing at 665 nm depends on the particular metal-enzyme combination employed.
The observation of an intermediate at 665 nm with di-Fe(II) BcII strongly correlates with increasing pH, with a larger change in absorbance amplitude at pH 7.5 (ΔAbsmax at pH 7.5 is 0.25 compared to ΔAbsmax at pH 6.5 and 5.5 of 0.15 and 0.05, respectively, Fig. 2 & Figs. S4–5). […] Data fitting using the Kintek Explorer package was unable to distinguish between linear and branched pathways (Fig. S11), but in both fittings the decay of the intermediate species was identified as the rate-limiting step (k3 and k4 in Tables S4 and S5, respectively). Although intermediate decay is apparently rate limiting, a negligible amount of intermediate is seen at pH 5.5. This may be explained either by a branched pathway, in which the branch with no intermediate is favoured by lower pH, or by a linear pathway in which the rate of decay of the intermediate rises with a decrease in pH thus preventing an observable accumulation of intermediate.

[6] = molecular target: T2, di-Zn(II) BcII; assay: as above; type: biochemical; settings: for Substrate Decay: 1:1 enzyme:nitrocefin, 5 °C; for Product accumulation: 1:1, 5 °C
Procedure: as §3, §4

[7] = molecular target: T4, di-Fe(II) VIM-2; assay: as above; type: biochemical; set-up: His-tag (3C protease site) (N, cleaved yes); made in house; host or cells: E. coli BL21(DE3)pLysS; settings: 1:1, 5 °C
Procedure: as §3, §4

[8] = molecular target: T3, di-Zn(II) VIM-2; assay: as above; type: biochemical; set-up: His-tag (3C protease site) (N, cleaved yes); made in house; host or cells: E. coli BL21(DE3)pLysS; settings: 1:1, 5 °C
Procedure: as §3, §4

[9] = test system: C[C@@H](O)[C@H]1C(=O)N2C(C(=O)O)=C(S[C@@H]3CN[C@H](C(=O)N(C)C)C3)[C@H](C)[C@H]12; assay: purified protein, by the assay type; settings: other: meropenem as substrate, [E] 2 nM
Procedure: as §5

[10] = test system: O=C(Cc1cccs1)N[C@@H]1C(=O)N2C(C(=O)O)=C(/C=C/c3ccc([N+](=O)[O-])cc3[N+](=O)[O-])CS[C@H]12; assay: purified protein, by the assay type; settings: other: nitrocefin as substrate
[11] = Kintek Explorer fit, branched mechanism, pH 7.5, 5°C
[12] = Kintek Explorer fit, linear mechanism, pH 7.5, 5°C

T2 sequence (P04190 31-257): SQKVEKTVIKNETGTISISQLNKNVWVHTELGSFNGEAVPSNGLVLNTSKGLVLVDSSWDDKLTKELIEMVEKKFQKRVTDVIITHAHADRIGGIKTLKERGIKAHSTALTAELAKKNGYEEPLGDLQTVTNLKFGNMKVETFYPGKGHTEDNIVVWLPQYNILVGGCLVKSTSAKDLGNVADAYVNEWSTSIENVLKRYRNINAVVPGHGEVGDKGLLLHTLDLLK
T1 sequence (P04190 31-257): as above

For `O=C(O)CN(CCN(CC(=O)O)CC(=O)O)CC(=O)O` [EDTA], the IC50 [1] was 4700 ± 100 µM and the IC50 [2] was 7500 ± 300 µM.
`O=C(O)/C(S)=C/c1c(Cl)ccc(Cl)c1Cl` [ML302F] was tested, and the IC50 [1] was 0.38 ± 0.08 µM, the “fold difference in IC50” value ([1]; di-Fe(II) BcII versus di-Zn(II) BcII) was roughly 10 fold and the IC50 [2] was 0.046 ± 0.001 µM.
`O=C(O)C(S)c1ccccc1` (stereo not shown) [Thiomandelic acid] showed an IC50 [1] of 2.8 ± 0.8 µM and an IC50 [2] of 1.3 ± 0.3 µM.
`C[C@@H](O)[C@H]1C(=O)N2C(C(=O)O)=C(S[C@@H]3CN[C@H](C(=O)N(C)C)C3)[C@H](C)[C@H]12` [meropenem] showed a Km [3] of 10 ± 2 µM, a kcat [3] of 2.4 ± 0.1 s⁻¹ and a Km [4] of 16 ± 2 µM. It also gave a kcat [4] of 0.5 ± 0.0 s⁻¹.
With `O=C(Cc1cccs1)N[C@@H]1C(=O)N2C(C(=O)O)=C(/C=C/c3ccc([N+](=O)[O-])cc3[N+](=O)[O-])CS[C@H]12` [nitrocefin] the Substrate Decay ([5]; pH 5.5, 390 nm) was 3.88 s⁻¹ and 3.88 ± 0.01 s⁻¹, the Product accumulation ([5]; pH 5.5, 485 nm) was 5.78 ± 0.01 s⁻¹ and the Substrate Decay ([5]; pH 6.5, 390 nm) was 5.25 ± 0.01 s⁻¹. It also gave a Product accumulation ([5]; pH 6.5, 485 nm) of 4.27 ± 0.01 s⁻¹, an Intermediate Decay ([5]; pH 6.5, 665 nm) of 1.2 ± 0.1 s⁻¹ and an Intermediate accumulation ([5]; pH 6.5, 665 nm) of 18.31 ± 0.01 s⁻¹. For the same compound, the Substrate Decay ([5]; pH 7.5, 390 nm) was 7.25 s⁻¹ and 7.25 ± 0.01 s⁻¹, the Product accumulation ([5]; pH 7.5, 485 nm) was 7.20 ± 0.01 s⁻¹ and the Intermediate Decay ([5]; pH 7.5, 665 nm) was 1.4 ± 0.1 s⁻¹. The Intermediate accumulation ([5]; pH 7.5, 665 nm) was 20.32 ± 0.01 s⁻¹, the k1 [5, 11] was 239000 and the k2 [5, 11] was 46. For the same compound, the k3 [5, 11] was 73.4, the k-1 [5, 11] was 0.0000001 and the k5 ([5]; Kintek Explorer fit, branched mechanism, pH 7.5, 5°C, fixed) was 100000000. The k4 ([5]; Kintek Explorer fit, branched mechanism, pH 7.5, 5°C, intermediate decay, rate-limiting) was 4.18, the k1 [5, 12] was 225000 and the k2 [5, 12] was 82.7. It also gave a k-1 [5, 12] of 0.000000403, a k4 ([5]; Kintek Explorer fit, linear mechanism, pH 7.5, 5°C, fixed) of 100000000 and a k3 ([5]; Kintek Explorer fit, linear mechanism, pH 7.5, 5°C, intermediate decay, rate-limiting) of 7.2. For the same compound, the Substrate Decay ([6]; pH 5.5, 390 nm) was 4.16 s⁻¹ and 4.16 ± 0.01 s⁻¹, the Product accumulation ([6]; pH 5.5, 485 nm) was 4.13 ± 0.01 s⁻¹ and the Substrate Decay ([6]; pH 6.5, 390 nm) was 3.24 ± 0.01 s⁻¹. The Product accumulation ([6]; pH 6.5, 485 nm) was 3.29 ± 0.01 s⁻¹, the Substrate Decay ([6]; pH 7.5, 390 nm) was 2.55 s⁻¹ and 2.55 ± 0.01 s⁻¹ and the Product accumulation ([6]; pH 7.5, 485 nm) was 2.75 ± 0.01 s⁻¹. For the same compound, the “Substrate Decay” value ([7]; pH 5.5, 390 nm) was 35 s⁻¹ and 35 ± 1 s⁻¹, the “Product accumulation” value ([7]; pH 5.5, 485 nm) was 23.4 ± 0.5 s⁻¹ and the “Substrate Decay” value ([7]; pH 6.5, 390 nm) was 0.24 s⁻¹ and 0.24 ± 0.01 s⁻¹. For the same compound, the “Product accumulation” value ([7]; pH 6.5, 485 nm) was 0.44 ± 0.01 s⁻¹, the “Substrate Decay” value ([7]; pH 7.5, 390 nm) was 0.15 s⁻¹ and 0.15 ± 0.01 s⁻¹ and the “Product accumulation” value ([7]; pH 7.5, 485 nm) was 0.35 ± 0.01 s⁻¹. The “Substrate Decay” value ([8]; pH 5.5, 390 nm) was 190 s⁻¹ and 190 ± 4 s⁻¹, the “Product accumulation” value ([8]; pH 5.5, 485 nm) was 93 ± 2 s⁻¹ and the “Intermediate Decay” value ([8]; pH 5.5, 665 nm) was 120 ± 10 s⁻¹. For the same compound, the “Intermediate accumulation” value ([8]; pH 5.5, 665 nm) was 220 ± 20 s⁻¹, the “Substrate Decay” value ([8]; pH 6.5, 390 nm) was 290 ± 10 s⁻¹ and the “Product accumulation” value ([8]; pH 6.5, 485 nm) was 130 ± 4 s⁻¹. For the same compound, the “Intermediate Decay” value ([8]; pH 6.5, 665 nm) was 160 ± 30 s⁻¹, the “Intermediate accumulation” value ([8]; pH 6.5, 665 nm) was 320 ± 80 s⁻¹ and the “Substrate Decay” value ([8]; pH 7.5, 390 nm) was 320 s⁻¹ and 320 ± 30 s⁻¹. The “Product accumulation” value ([8]; pH 7.5, 485 nm) was 140 ± 5 s⁻¹ and the “Intermediate Decay” value ([8]; pH 7.5, 665 nm) was 180 ± 50 s⁻¹.
di-Fe(II) BcII (Bacillus cereus) was tested, and the Km ([9]; BcII Fe(II), low O2) was 230 ± 30 µM, the kcat ([9]; BcII Fe(II), low O2) was 38 ± 2 s⁻¹ and the kcat/Km ([9]; BcII Fe(II), low O2) was 170000 M⁻¹ s⁻¹. It also gave a Km ([10]; BcII Fe(II), [E] 2 nM, low O2) of 11 ± 2 µM, a kcat ([10]; BcII Fe(II), [E] 2 nM, low O2) of 12.5 s⁻¹ and a kcat/Km ([10]; BcII Fe(II), [E] 2 nM, low O2) of 1.2e+06 M⁻¹ s⁻¹.
Work on “di-Fe(II) VIM-2 (Pseudomonas aeruginosa)” yielded a Km ([10]; VIM-2 Fe(II), [E] 1 nM, low O2) of 32 ± 5 µM, a kcat ([10]; VIM-2 Fe(II), [E] 1 nM, low O2) of 44 s⁻¹ and a kcat/Km ([10]; VIM-2 Fe(II), [E] 1 nM, low O2) of 1.4e+06 M⁻¹ s⁻¹.
In the case of di-Zn(II) BcII (Bacillus cereus), the Km ([9]; BcII Zn(II)) is reported as 220 ± 20 µM, the kcat ([9]; BcII Zn(II)) is reported as 89 ± 3 s⁻¹ and the kcat/Km ([9]; BcII Zn(II)) is reported as 400000 M⁻¹ s⁻¹. The Km ([10]; BcII Zn(II), [E] 2 nM) was 12 ± 2 µM, the kcat ([10]; BcII Zn(II), [E] 2 nM) was 10.1 s⁻¹ and the kcat/Km ([10]; BcII Zn(II), [E] 2 nM) was 820000 M⁻¹ s⁻¹.
For “di-Zn(II) VIM-2 (Pseudomonas aeruginosa)”, the Km ([10]; VIM-2 Zn(II), [E] 0.1 nM) was 9 ± 1 µM, the kcat ([10]; VIM-2 Zn(II), [E] 0.1 nM) was 143 s⁻¹ and the kcat/Km ([10]; VIM-2 Zn(II), [E] 0.1 nM) was 1.6e+07 M⁻¹ s⁻¹.
